Series [1] deals with recombinant PfCDPK4 (Plasmodium falciparum, UniProt Q8IBS5). Put plainly: PfCDPK4 luminescence-based. In kind it is biochemical. The following applies: for fold more potent against PfCDPK4 than PfCDPK1: ratio of IC50s.
Series [2] concerns the target T1, Abl tyrosine kinase (Homo sapiens, UniProt P00519).
T1 sequence (P00519 229-512 limits assumed): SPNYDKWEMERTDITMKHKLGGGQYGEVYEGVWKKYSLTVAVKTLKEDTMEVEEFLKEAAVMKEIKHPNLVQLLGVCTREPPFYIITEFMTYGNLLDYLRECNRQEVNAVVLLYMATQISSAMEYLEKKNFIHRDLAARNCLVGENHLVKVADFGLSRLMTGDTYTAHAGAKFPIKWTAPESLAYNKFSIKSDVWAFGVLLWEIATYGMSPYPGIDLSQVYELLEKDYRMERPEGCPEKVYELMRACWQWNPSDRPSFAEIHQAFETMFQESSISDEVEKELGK
Put plainly: Abl radioactive kinase assay. In kind it is biochemical.

In series [3] the test system is P. falciparum gametocyte exflagellation. Description: P. falciparum exflagellation assay. In kind it is cell-based. To be noted: Plasmodium falciparum, read-out: P. falciparum exflagellation inhibition EC50.
The nature of series [4]: Human cell growth inhibition assay. In kind it is cell-based. To be noted: HepG2 cells (liver).
The nature of series [5]: Human cell growth inhibition assay. The following applies: CRL-8155 cells (lymphocytic). In kind it is cell-based.
In series [6] the test system is PfCDPK1. Description: PfCDPK1 enzymatic assay. In kind it is biochemical, Plasmodium falciparum. To be noted: ratio of IC50s.
Series [7] has as its system Src kinase. Put plainly: Src radioactive kinase assay. To be noted: ratio of IC50s.

This is an account of results in article PMC4024383 (European journal of medicinal chemistry, 2014).

recombinant PfCDPK4, sequence (Q8IBS5 whole entry): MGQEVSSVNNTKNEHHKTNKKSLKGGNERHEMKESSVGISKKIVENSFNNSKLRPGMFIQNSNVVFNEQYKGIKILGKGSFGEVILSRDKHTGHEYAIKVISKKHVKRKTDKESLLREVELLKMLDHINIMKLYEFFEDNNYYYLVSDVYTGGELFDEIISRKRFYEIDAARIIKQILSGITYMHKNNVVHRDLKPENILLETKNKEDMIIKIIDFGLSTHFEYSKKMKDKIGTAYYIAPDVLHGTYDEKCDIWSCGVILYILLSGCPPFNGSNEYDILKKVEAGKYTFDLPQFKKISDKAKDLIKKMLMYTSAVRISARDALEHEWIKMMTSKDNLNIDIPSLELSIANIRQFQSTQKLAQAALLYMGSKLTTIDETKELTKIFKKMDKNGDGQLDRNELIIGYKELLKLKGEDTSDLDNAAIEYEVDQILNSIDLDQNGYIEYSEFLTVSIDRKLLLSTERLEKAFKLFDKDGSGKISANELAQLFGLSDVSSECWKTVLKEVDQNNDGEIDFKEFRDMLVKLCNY

Consider `CCOc1ccc2cc(-c3nn(CC(C)C)c4ncnc(N)c34)ccc2c1` [17q, 3-(6-ethoxynaphthalen-2-yl)-1-isobutyl-1H-pyrazolo[3,4-d]pyrimidin-4-amine], for which the IC50 in series [1] turned out to be 14 nM; in series [2], 2700 nM. In addition, the “fold more potent against PfCDPK4 than i-Pr analog 17a” value in series [1] (relative to 17a) is recorded as “more than 30 fold”. In addition, the EC50 in series [3] is less than 40 nM. The 50% growth inhibitory concentration (GI50) in series [4] and in series [5] was greater than 30000 nM in each case.

For the molecule `CCOc1ccc2cc(-c3nn(C(C)C)c4ncnc(N)c34)cc(C)c2n1` [31a, 3-(2-ethoxy-8-methylquinolin-6-yl)-1-isopropyl-1H-pyrazolo[3,4-d]pyrimidin-4-amine], the “fold more potent against PfCDPK4 than PfCDPK1” value in series [1] is on record as greater than 5 fold.

`CCOc1ccc2cc(-c3nn(CC(C)(C)CO)c4ncnc(N)c34)ccc2n1` [30u, 3-(4-amino-3-(2-ethoxyquinolin-6-yl)-1H-pyrazolo[3,4-d]pyrimidin-1-yl)-2,2-dimethylpropan-1-ol]: the values for the IC50 in series [1] and in series [2] were 4 nM and greater than 10000 nM, respectively. The EC50 in series [3] was less than 40 nM. Moreover, the GI50 in series [4] and in series [5] was greater than 30000 nM throughout.

Consider `CC(C)n1nc(-c2ccc3nc(OCc4ccccc4)ccc3c2)c2c(N)ncnc21` [33a, 3-(2-(benzyloxy)quinolin-6-yl)-1-isopropyl-1H-pyrazolo[3,4-d]pyrimidin-4-amine], for which the “fold more potent against PfCDPK1 than PfCDPK4” value in series [6] was greater than 3 fold.

On to `CCOc1ccc2cc(-c3nn(C(C)C)c4ncnc(N)c34)ccc2n1` [30a, 3-(2-ethoxyquinolin-6-yl)-1-isopropyl-1H-pyrazolo[3,4-d]pyrimidin-4-amine], for which, in series [1], the IC50 was less than 20 nM and the “fold more potent against PfCDPK4 than PfCDPK1” value is greater than 5 fold.

For `Nc1ncnc2c1c(-c1ccc3cc(OC4CC4)ccc3c1)nn2CC1CCNCC1` [37j, 3-(6-cyclopropoxynaphthalen-2-yl)-1-(piperidin-4-ylmethyl)-1H-pyrazolo[3,4-d]pyrimidin-4-amine], the IC50 in series [1] was determined as 2 nM. Also, the EC50 in series [3] is less than 40 nM. For the same molecule, the GI50 in series [4] and in series [5] was greater than 30000 nM throughout.

In the case of `CCOc1ccc2cc(-c3nn(CC4CNC4)c4ncnc(N)c34)ccc2c1` [17g, 1-(azetidin-3-ylmethyl)-3-(6-ethoxynaphthalen-2-yl)-1H-pyrazolo[3,4-d]pyrimidin-4-amine], the “selectivity for PfCDPK4 over Src” value in series [7] was “greater than 1300 fold”.
